The values that follow are results of earlier work, collected in patent US20120101124A1, “1,2,4-OXADIAZOL DERIVATIVES, THEIR PHARMACEUTICAL COMPOSITIONS AND THEIR USE AS SPHINGOSINE 1-PHOSPHATE 1 RECEPTOR AGONISTS” (GLAXO GROUP LIMITED, priority 2009, published 2012).

For series [1] the following is noted: clinical studies.
The subject of the next series is circulating lymphocytes. Conditions: animals and man.

As to `CCCCCCCCc1ccc(CCC(N)(CO)CO)cc1` [FTY720], the bradycardia on treatment entry in series [1] was “bradycardia in the first 24 hours of treatment”. The “effect on circulating lymphocytes” value in the series with circulating lymphocytes is “reduce circulating lymphocytes in animals and man”.
